Data as given in paper PMC3855387, “AMPK Activation through Mitochondrial Regulation Results in Increased Substrate Oxidation and Improved Metabolic Parameters in Models of Diabetes” (PLoS ONE, 2013).

Tests used:
[1] = molecular target: T1, respiratory complex I (mitochondrial complex I) (Mus musculus, UniProt P03888+Q91WD5+Q9DC70); assay: NADH oxidation (A340) in mouse liver mitochondrial lysate; succinate rescue of respiration in isolated mitochondria; format: biochemical
T1 construct: gene Ndufs2; native complex in mouse liver mitochondrial lysate

[2] = molecular target: T1, respiratory complex I (mitochondrial complex I); assay: NADH oxidation (A340) in mouse liver mitochondrial lysate; format: biochemical

COc1ccc(C(=O)C2CCN(C(=O)c3ccc(C(=O)NC4CCN(Cc5ccc(C#N)cc5)CC4)cn3)CC2)cc1 [R419, N-(1-(4-cyanobenzyl)piperidin-4-yl)-6-(4-(4-methoxybenzoyl)piperidine-1-carbonyl)nicotinamide]
IC50 [1]: 82 nM

CN(C)C(=N)N=C(N)N [metformin]
IC50 [2]: 27 mM
